Experimental data reported in patent publication US20140350081A1, “INSECT G-COUPLED RECEPTORS USEFUL AS TARGETS FOR INSECTICIDES AND COMPOUNDS AND REAGENTS IDENTIFIED USING THE SAME” (priority 2011, published 2014).
Like-named read-outs stand apart in the source and are kept apart here.

Columns and labels:
[1] = molecular target: T1, AaDOP2 (Aedes aegypti, UniProt H6D5H2); experiment: AaDOP2 agonist screen against the LOPAC1280 library; format: cell-based
[2] = molecular target: T1, AaDOP2; experiment: HTRF cAMP accumulation concentration response assay (Cisbio Dynamic 2); format: cell-based
[3] = molecular target: T1, AaDOP2; experiment: LOPAC1280 antagonist screen in HEK-CRELuc-Aadop2 cells; format: cell-based
[4] = molecular target: Isdop2 (Ixodes scapularis, UniProt A0ACM8DGL0); experiment: cell-based; settings: for inhibition at 10 µM: read-out: % Inhibition (of response to dopamine), Isdop2 screen
Isdop2, sequence (A0ACM8DGL0 entry or part of it): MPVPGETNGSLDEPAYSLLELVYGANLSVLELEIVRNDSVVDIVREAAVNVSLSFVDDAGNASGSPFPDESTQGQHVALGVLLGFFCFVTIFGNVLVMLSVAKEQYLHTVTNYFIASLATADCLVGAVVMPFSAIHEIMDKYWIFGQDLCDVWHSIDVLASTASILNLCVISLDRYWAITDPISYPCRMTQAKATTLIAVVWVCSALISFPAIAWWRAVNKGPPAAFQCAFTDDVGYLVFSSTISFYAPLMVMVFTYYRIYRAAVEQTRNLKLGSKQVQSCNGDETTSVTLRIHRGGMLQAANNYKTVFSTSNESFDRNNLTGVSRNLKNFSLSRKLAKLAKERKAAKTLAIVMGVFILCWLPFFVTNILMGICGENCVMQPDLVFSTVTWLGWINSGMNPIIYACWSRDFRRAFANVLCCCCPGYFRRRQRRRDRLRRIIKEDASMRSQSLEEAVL

[5] = test system: Ae. aegypti L3 larvae; experiment: whole plant or invertebrate; settings: Aedes aegypti
[6] = test system: adult male Blatella germanica; experiment: Cockroach contact assay (topical application); format: in vivo; settings: 200 mM compound
From the text: (§1) A series of whole organism bioassays was developed to further evaluate the toxicity of chemistries to a range of agricultural, veterinary and public health pests and non-target insects (Tables 12 and 13). These assays are designed to rapidly explore the biological activity spectrum of chemistries as well as to facilitate initial investigations of the mode of action of insecticidal compounds. Briefly, assays were developed for the German cockroach (Blatella germanica, urban pest), termite (Reticulitermes flavipes; urban pest), lone star tick (Amblyomma americana; veterinary and public health pest), soybean aphid (Aphis glycines, agricultural pest) and honeybee (Apis mellifera; beneficial, non-target insect). The assays were designed to test the toxicity and speed of kill of multiple chemistries on contact. Each of these assays was performed as a single point dose experiment in triplicate using either topical application of compound to the ventral thorax ([…]; 50-80 μg effective dose depending on compound) as is the case for our cockroach and honeybee assays, or 10 second immersion in a solution of the compound diluted in water or DMSO:EtOH to a final concentration of 100 μM. The assays were conducted in 24-well plate format with mortality assessment following incubation at 22° C. as described above. Commercial insecticides were incorporated in these assays to provide a positive control and permit initial comparative analyses. Lead chemistries identified in our in vivo screen have been evaluated in the cockroach and termite assays.

[7] = test system: adult male Blatella germanica; experiment: Cockroach assay of Table 16 (title contact assay, text feeding assay); format: in vivo; settings: 200 mM compound
From the text: as §1

[8] = 10 μM compound, percent of response to 1 μM dihydrexidine
[9] = AaDOP2 expressing cells in the presence of dopamine, No Inhibition = <10% inhibition at 3 μM test compound, read-out: IC50 ± S.E.M. (nM), HTRF cAMP assay
[10] = 10 μM compound, 300 nM dopamine, quadruplicate
[11] = 24 h, read-out: Toxicity to Aedes aegypti larvae (mortality) 24 hours
[12] = 48 h, read-out: Toxicity to Aedes aegypti larvae (mortality) 48 hours
[13] = 72 h, read-out: Toxicity to Aedes aegypti larvae (mortality) 72 hours

T1 sequence (H6D5H2 entry or part of it): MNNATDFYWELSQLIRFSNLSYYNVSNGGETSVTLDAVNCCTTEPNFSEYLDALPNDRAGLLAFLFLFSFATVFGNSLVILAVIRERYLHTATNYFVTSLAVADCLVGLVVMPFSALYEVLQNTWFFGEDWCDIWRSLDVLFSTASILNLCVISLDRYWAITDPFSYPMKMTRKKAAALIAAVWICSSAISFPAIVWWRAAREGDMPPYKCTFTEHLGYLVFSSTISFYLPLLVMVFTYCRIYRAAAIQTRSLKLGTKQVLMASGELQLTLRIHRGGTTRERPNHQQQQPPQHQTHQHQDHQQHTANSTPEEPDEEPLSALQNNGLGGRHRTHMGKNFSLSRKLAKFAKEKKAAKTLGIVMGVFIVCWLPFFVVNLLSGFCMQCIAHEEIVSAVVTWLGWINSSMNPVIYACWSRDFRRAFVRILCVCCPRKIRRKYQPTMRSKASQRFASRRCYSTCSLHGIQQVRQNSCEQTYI

C=CCN1CCc2c(cc(O)c(O)c2Cl)C(c2ccccc2)C1 (racemic) [(±)-Chloro-APB]
% of DHX [1, 8]: 105%

CNC[C@H](O)c1ccc(O)c(O)c1 (racemic) [(±)-Epinephrine]
% of DHX [1]: 81%

Nn1nnc2ccccc21 [1-Aminobenzotriazole]
% of DHX [1, 8]: 75%

NC1CCc2cc(O)c(O)cc2C1 (stereo not shown) [6,7-ADTN]
% of DHX [1, 8]: 131%

CC1=C[C@@H]2c3cccc4[nH]cc(c34)C[C@H]2N(C)C1 [Agroclavine]
% of DHX [1, 8]: 93%

C[C@H]1C[C@H]2[C@@H]3CCC4=CC(=O)C=C[C@]4(C)[C@@]3(F)[C@@H](O)C[C@]2(C)[C@@]1(O)C(=O)CO [Betamethasone]
% of DHX [1, 8]: 101%

Nc1ncnc2c1ncn2[C@@H]1O[C@H](C(=O)NC2CC2)[C@@H](O)[C@H]1O [CPCA]
% of DHX [1, 8]: 34%

CCCN(CCC)CCc1ccc(O)c(O)c1 [Dipropyldopamine]
% of DHX [1, 8]: 38%

CCN(c1nc(N)c(C(=O)NC(=N)N)nc1Cl)C(C)C [EIPA]
% of DHX [1, 8]: 73%

Oc1ccc(C2CNCCc3c2cc(O)c(O)c3Cl)cc1 (stereo not shown) [Fenoldopam]
% of DHX [1, 8]: 31%

C=C[C@@]1(C)CC(=O)[C@]2(O)[C@@]3(C)[C@@H](O)CCC(C)(C)[C@@H]3[C@H](O)[C@H](OC(C)=O)[C@@]2(C)O1 [Forskolin]
% of DHX [1, 8]: 34%

CN(C)CCCN1c2ccccc2CCc2ccccc21 [Imipramine, 3-(10,11-dihydro-5H-dibenzo[b,f]azepin-5-yl)-N,N-dimethylpropan-1-amine]
IC50 [2, 9]: 360 ± 30 nM | % of the SCH23390 effect [3, 10]: 96% | % inhibition of DA activity (Aedes cell-based assay screen) ([3]; LOPAC1280 screen hits): 96% | inhibition at 10 µM [4]: 70% | mortality at 400 µM [5, 11]: 53% | mortality at 400 µM [5, 12]: 63% | mortality at 400 µM [5, 13]: 80%

COC(=O)N(C(=O)N1CO[C@@]2(C(=O)OC)Cc3cc(Cl)ccc3C2=N1)c1ccc(OC(F)(F)F)cc1 [Indoxacarb]
% Mortality 24 hrs [6]: 50% | % Mortality 48 hrs [6]: 50% | % Mortality 72 hrs [6]: 70% | % Mortality 120 hrs [6]: 100% | % Mortality 240 hrs [6]: 100% | % Mortality 24 hrs [7]: 63% | % Mortality 48 hrs [7]: 63% | % Mortality 72 hrs [7]: 80% | % Mortality 120 hrs [7]: 100%

CN1CCC(=C2c3ccccc3CC(=O)c3sccc32)CC1 [Ketotifen, 4-(1-methylpiperidin-4-ylidene)-4,9-dihydro-10H-benzo[4,5]cyclohepta[1,2-b]thiophen-10-one]
IC50 [2, 9]: 750 ± 180 nM | % of the SCH23390 effect [3, 10]: 96% | % inhibition of DA activity (Aedes cell-based assay screen) ([3]; LOPAC1280 screen hits): 96%

CC1(C)C(=O)N(CCN2CCC(C(=O)c3ccc(F)cc3)CC2)c2ccccc21.Cl [LY310762, 1-[2-[4-(4-fluorobenzoyl)piperidin-1-yl]ethyl]-3,3-dimethylindol-2-one]
% of the SCH23390 effect [3]: 81% | % inhibition of DA activity (Aedes cell-based assay screen) ([3]; LOPAC1280 screen hits): 81% | inhibition at 10 µM [4]: 72% | mortality at 400 µM ([5]; 0.5 h, read-out: percent mortality 0.5 hr, 400 uM, L3 larvae, value for this scoring time): 0% | mortality at 400 µM ([5]; 1 h, read-out: percent mortality 1 hr, 400 uM, L3 larvae, per scoring time): 0% | mortality at 400 µM ([5]; 2 h, read-out: percent mortality 2 hr, 400 uM, L3 larvae, per scoring time): 0% | mortality at 400 µM ([5]; 3 h, read-out: percent mortality 3 hr, 400 uM, L3 larvae, per scoring time): 0% | mortality at 400 µM ([5]; 4 h, read-out: percent mortality 4 hr, 400 uM, L3 larvae, per scoring time): 0% | mortality at 400 µM ([5]; 24 h, read-out: Toxicity to Aedes aegypti larvae (mortality) 24 hours, 400 μM, L3 larvae, three independent experiments): 0% | mortality at 400 µM ([5]; 24 h, read-out: percent mortality 24 hr, 400 uM, L3 larvae, per scoring time): 0% | mortality at 400 µM ([5]; 48 h, read-out: Toxicity to Aedes aegypti larvae (mortality) 48 hours, 400 μM, L3 larvae, three independent experiments): 3% | mortality at 400 µM ([5]; 48 h, read-out: percent mortality 48 hr, 400 uM, L3 larvae, per scoring time): 10% | mortality at 400 µM ([5]; 72 h, read-out: Cumulative % Mortality (72 hrs), 400 uM, L3 larvae): 10% | mortality at 400 µM ([5]; 72 h, read-out: Toxicity to Aedes aegypti larvae (mortality) 72 hours, 400 μM, L3 larvae, three independent experiments): 3% | mortality at 400 µM ([5]; 72 h, read-out: percent mortality 72 hr, 400 uM, L3 larvae, per scoring time): 0% | mortality at 400 µM ([5]; […], read-out: percent mortality […], 400 uM, L3 larvae, per scoring time): 0%

CC[C@@H](CO)NC(=O)[C@@H]1C=C2c3cccc4[nH]cc(c34)C[C@H]2N(C)C1 [Methylergonovine]
% of DHX [1, 8]: 47%

CCNC(=O)[C@H]1O[C@@H](n2cnc3c(NCc4ccccc4)ncnc32)[C@@H](O)C1O (stereo partly shown) [N6-Benzyl-NECA]
% of DHX [1, 8]: 36%

CNCCc1ccc(O)c(O)c1 [N-Methyldopamine]
% of DHX [1, 8]: 107%

CCCCCCCC/C=C\CCCCCCCC(=O)NCCc1ccc(O)c(O)c1 [N-Oleoyldopamine]
% of DHX [1, 8]: 38%

CNCCC=C1c2ccccc2CCc2ccccc21 [Nortriptyline, 3-(10,11-dihydro-5H-dibenzo[a,d]cyclohepten-5-ylidene)-N-methyl-1-propanamine]
IC50 ([2]; IC50 ± S.E.M. (nM), HTRF cAMP assay): 140 ± 50 nM | % of the SCH23390 effect [3, 10]: 96% | % inhibition of DA activity (Aedes cell-based assay screen) ([3]; LOPAC1280 screen hits): 96% | inhibition at 10 µM [4]: 79% | mortality at 400 µM [5, 11]: 43% | mortality at 400 µM [5, 12]: 63% | mortality at 400 µM [5, 13]: 73%

OCCN1CCN(CCCN2c3ccccc3Sc3ccc(Cl)cc32)CC1 [Perphenazine, 2-[4-[3-(2-chloro-10H-phenothiazin-10-yl)propyl]piperazin-1-yl]ethanol]
IC50 ([2]; Avg IC50 (μM), in vitro Concentration Response Curve assay, n = 2, relative to control antagonist Amitriptyline): 101 nM | % of the SCH23390 effect [3, 10]: 95% | % inhibition of DA activity (Aedes cell-based assay screen) ([3]; LOPAC1280 screen hits): 95% | inhibition at 10 µM [4]: 76%

CNCCCC1c2ccccc2C=Cc2ccccc21 [Protriptyline, 3-(5H-dibenzo[a,d][7]annulen-5-yl)-N-methylpropan-1-amine]
IC50 ([2]; read-out: IC50 ± S.E.M. (nM), HTRF cAMP assay): 600 ± 250 nM | % inhibition of DA activity (Aedes cell-based assay screen) [3]: 82% | % of the SCH23390 effect [3]: 82% | inhibition at 10 µM [4]: 75% | mortality at 400 µM [5, 11]: 37% | mortality at 400 µM [5, 12]: 43% | mortality at 400 µM [5, 13]: 53%

C=CCN1CCc2cccc3c2[C@H]1Cc1ccc(O)c(O)c1-3 [R(−)-N-Allyl-NPA]
% of DHX [1, 8]: 56%

CCCN1CCc2cccc3c2[C@H]1Cc1ccc(O)c(O)c1-3 [R(−)-Propyl-NPA]
% of DHX [1, 8]: 68%

Br.Cc1cccc(C2CN(C)CCc3c2cc(O)c(O)c3Cl)c1 (stereo not shown) [SKF 83959]
% of DHX [1, 8]: 30% | % Inhibition (of response to dopamine), Isdop2 screen [4]: 87%

Br.Oc1ccc(C2CNCc3sccc32)cc1O (stereo not shown) [SKF 89626]
% of DHX [1, 8]: 101%

CN(C)CCCN1c2ccccc2Sc2ccc(C(F)(F)F)cc21 [Triflupromazine, N,N-dimethyl-3-[2-(trifluoromethyl)-10H-phenothiazin-10-yl]propan-1-amine]
% of the SCH23390 effect [3]: 88% | % inhibition of DA activity (Aedes cell-based assay screen) ([3]; LOPAC1280 screen hits): 88% | inhibition at 10 µM [4]: 83%
